Here are results for eight molecules from patent US20030077653A1, “Method for the identification of active site protease inactivators” (The University of Georgia Research Foundation, Inc., priority 2000, published 2003).

Each structure is given as a SMILES string. Residues, ends and D or L forms follow the SMILES beside them. *: point of attachment. AFC = O=c1cc(C(F)(F)F)c2ccc(N*)cc2o1; Cbz = O=C(OCc1ccccc1)*; Boc = CC(C)(C)OC(=O)*

Holding throughout (format): biochemical
Test [1] concerns purified Taenia solium cysteine protease. Put plainly: Competitor assay: vehicle inhibition of cleavage of high Vmax AFC substrate cocktails (Step III). The note with it: purified protease; P = inhibition with first (1.4%) cocktail, M = inhibition with last (7.4%) cocktail. The protocol:
(We employed “Vmax” here although Kcat could also be used). Due to the lower number of substrates, a percentage was not chosen for the “BOTTOM %” substrates. Alternately, all substrates which were not cleaved as determined by a value of 10 μM/hr or less, were chosen to be tested in this step for competitive ability. From this point forth, the term “vehicle” will represent low Vmax substrates that were capable of inhibiting cleavage of the percent cocktails. In this instance, we tested for “vehicles” which inhibited cleavage of the TOP 1.4% cocktail (they were delivered into the active site). Based upon our results from Step II, the top 1.4% cocktail was composed of Z-Phe-Arg-AFC, the highest cleaved substrate.
The experiment began with a competitor test between the noncleaved low Vmax substrates and the highest Vmax substrate, Z-Phe-Arg-AFC. Concentrations were varied between the low Vmax substrate and Z-Phe-Arg-AFC, as described above under “refinement of assay” until a relative inhibition profile was obtained.
The mixture was allowed to equilibrate for a period of 30 minutes. Finally, active purified enzyme was added to the tubes at a concentration which was always 50 times less than the concentration of the high and low Vmax substrates, in order to insure saturation conditions. This concentration varied from purification to purification and the amount added depended upon the yield and specific activity of the purified protease.
Positive controls were set up similarly as described for test controls, except that solvent was added in substitution for the low Vmax substrate (in a volume equal to the low Vmax volume addition). All of the substrates could be dissolved in dimethylsulfoxide (DMSO), and therefore, this was the solvent of choice. Negative controls were set up by adding the low Vmax and the high Vmax substrate in a tube without the protease. All potential non-proteolytic induced liberation of AFC was therefore controlled for in this tube (a feature which also insured stability of the AFC substrates, since these substrates will freely liberate AFC when unstable). A tube set will be established for this negative control.
All controls were set up in triplicate, and experiments repeated a minimum of five times. The assays were incubated at 37° C., for 18 hours overnight.
Percent inhibition was calculated as: [formula]
A 2.9% cocktail of the high Vmax substrates was made. This was composed of Z-FR-AFC and the second most cleaved substrate, Z-FAR-AFC. The vehicles promoted from the initial screenings above were again tested for competitive inhibition ability with the new cocktails. Their concentrations were set identically to those which were “fixed” in the previous protocols. […]

Test [2] concerns Taenia solium crude mix. Put plainly: Competitor assay with crude mix as source of the protease (Step III). On the procedure: In order to prepare the Taenia solium “crude mix” , dry frozen Taenia solium cysts were obtained from 6-12 month old cysticercotic pigs from villages in an endemic area of porcine cysticercosis in Mexico. Metacestodes were carefully dissected from the parasitized tissues, washed three times with PBS, and lyophilized. Parasite extracts were prepared by suspending 0.1 grams of dry frozen cysts in 10 ml of extraction buffer (0.4 M citrate, pH 4.9). The cysts were vortexed for three five-minute intervals with intermittent incubations (5 min) at 4 ° C. Particulate material was removed by centrifugation (20,000 x g, 120 min) and the resulting soluble fraction filtered ([…]). In assay buffers, the detectable amount of the crude mix, as described above, was employed and incubated with the target substrates.
One of the most intriguing findings in this experiment was that a highly similar inhibition pattern for the competitor assay was noted when the crude mix was employed as the source of the target protease. Although there were some variations in the effects of inhibitor dilution, the most highly ranked vehicles remained inhibitory consistently in comparison to the profile with the target protease. The relative profile and composition of the top tiers of vehicles was identical. Z-LLL-AFC, Z-LLY-AFC, Mu-LY-AFC, Boc-VPR-AFC, Z-SY-AFC, Z-RR-AFC, Z-FLF-AFC, Z-LGR-AFC consistently presented as the top eight vehicles (FIG. 5b), respectively, based upon their V values (Table 2). […] It was notable that the three vehicles had very similar V values. […] As was mentioned, this vehicle along with Z-LLL-AFC and Z-LLY-AFC, were consistently the most inhibitory vehicles. The V values of the most inhibitory vehicle series are shown below in Table 2. Again, a clear break between the first and second tier vehicles could be noted with the V value.

Test [3] has as its system purified Taenia solium cysteine protease. As to the kind of experiment: Screen of AFC-linked synthetic substrates for cleavage (Step II). As to conditions: pH 4.9, 18 h, 37° C. The protocol: In this step, the most efficacious substrate for detection of the cysteine protease (high Kcat substrate) was determined in vitro along with those substrates which were not well cleaved (low kcat substrates). From this point forth, the following conditions refer to all assays: “assay buffer” refers to 0.4 M Citrate, pH 4.9 (the pH optima of the protease). Incubation time was 18 hours at 37° C. These conditions were determined by our preliminary data to be best for kinetic evaluation of the protease. […] The experiments were conducted in […] Borosilicate mini-culture tubes (Fisher Scientific), and a fluorometer (Turner) was employed for detection of AFC cleavage.
Approximately 1 ug (or a proteolytically detectable amount) of the purified target cysteine protease was incubated individually, with 1 μg of each of the available substrates in 500 μL of assay buffer. During this setup, the substrate was pre-incubated in the assay buffer for a short period of time (20 minutes) in order to reach an equilibrated status before the addition of the protease. Cleavage assessments were based upon the property of the protease to cleave synthetic peptide substrates linked at the C-terminus to 7-Amino-4-Trifluoromethyl Coumarin (AFC) as previously described. AFC linked tripeptides, dipeptides, and monopeptides, (with a variety of permutations at P3-P1) were available from Enzyme Systems Products (Livermore, CA), and were used as the source of the subset. Following incubation of enzyme preparations overnight (18 h, 37 ° C.) with peptide in assay buffer (Citrate, pH 4.9, supplemented with 0.01 M cysteine), free AFC concentrations were measured fluorometrically (excitation […]). The proteolytic cleavage released the AFC group, which was measurable as a free molecule by a standard fluorometer and converted into molar quantities, based upon a previously established standard curve. The simplicity of AFC detection by the fluorometer was a key factor which quickened and simplified the procedures.
In the assay, 1 ug of the purified Taenia cysteine protease was added to a saturating amount of Z-Phe-Arg-AFC (4×10^−5 M) in assay buffer. The experiment was conducted in triplicate and repeated at least 5 times until we were certain that variability in AFC cleavage was not statistically significant.
Vmax was calculated for the cleavage of substrates by the purified target protease and Vmax was calculated for substrates cleaved by the crude mix protease using conventional kinetic modeling calculations already described in the art.

The test system is the same in test [4]. As to the kind of experiment: Protease inactivator inhibition assay (EC100, Ki; Step VII). The source says:
Once the protease inactivators were synthesized in the organic laboratory, they were to be tested for the lowest efficacious concentrations at which they induced 100% inhibition of the target protease (EC100). The top percent cocktail that was employed in the final vehicle selection step of Step III was employed as the source of competition for the inhibitors. In this case, this was the […] which was comprised of Z-FR-AFC, Z-FAR-AFC, Z-AP-AFC, Z-AAK-AFC, and Z-VLR-AFC. The final result would be a ranking of transition state candidate protease inactivators with a high ranking directly correlating to a low ECIoo value. The following steps describe the assay:
Step A: Initial Screening. To set up the test control, each protease inactivator was first incubated with the 5% cocktail (which provided the final differentiation of vehicles in Step III). To begin with, the protease inactivator was incubated at a concentration of 3×10^−9M in 500 μl of assay buffer (0.2 M Citrate, pH 4.9 supplemented with 10mM L-cysteine). This concentration was determined, after a series of inhibitor dilutions identified, to be the best inhibitor concentration at which a differentiation in inhibitor potential could be noted. Next, a concentration equal to 4×10^−5M for each of the individual cocktail components, was added to the mix. The components were allowed to equilibrate for a period of 30 minutes. […]
Percent inhibition was calculated as: [formula] […]
Step C: Determination ofInhibitor Ki and mode of inhibition, and re-ranking of EC100 list with inhibitor Ki. Ki of each of the top ranked protease inactivators, based upon low EC100 values, was assessed next for the top 5 EC100 inhibitors.
In order to determine Ki, all of the high Vmax cocktail substrates were employed for Ki determination (since Ki of the inhibitor for the enzyme is the same regardless of the substrate). To insure the highest accuracy, Ki was to be determined upon a minimum of at least three of the high Kcat substrates. […]

Take `CC(C)C[C@H](NC(=O)OC(C)(C)C)C(=O)NCC(=O)N[C@@H](CCCNC(=N)N)C(=O)Nc1ccc2c(C(F)(F)F)cc(=O)oc2c1` [B-LGR-AFC] (Boc-Leu-Gly-Arg-{AFC}): the figures for the “V Value (vehicle inhibition quotient, V=P*M)” value in test [1] and in test [2] were 0.07 and 0.02, respectively.
As for `CC(C)[C@H](NC(=O)OC(C)(C)C)C(=O)N1CCC[C@H]1C(=O)N[C@@H](CCCNC(=N)N)C(=O)Nc1ccc2c(C(F)(F)F)cc(=O)oc2c1` [B-VPR-AFC, Boc-Val-Pro-Arg-AFC] (Boc-Val-Pro-Arg-{AFC}), the “cleavage as substrate (Vmax)” value in test [3] is reported as “noncleavable”.
As to `CC(C)C[C@H](NC(=O)[C@H](Cc1ccccc1)NC(=O)OCc1ccccc1)C(=O)N[C@@H](Cc1ccccc1)C(=O)Nc1ccc2c(C(F)(F)F)cc(=O)oc2c1` [Z-FLF-AFC] (Cbz-Phe-Leu-Phe-{AFC}), the results for the “V Value (vehicle inhibition quotient, V=P*M)” value in test [1] and in test [2] were 0.100 and 0.10, respectively.
Consider `CC(C)C[C@H](NC(=O)OCc1ccccc1)C(=O)NCC(=O)N[C@@H](CCCNC(=N)N)C(=O)Nc1ccc2c(C(F)(F)F)cc(=O)oc2c1` [Z-LGR-AFC, Z-Leu-Gly-Arg-AFC] (Cbz-Leu-Gly-Arg-{AFC}), for which the “cleavage as substrate (Vmax)” value in test [3] is on record as “noncleavable”.
Turning to `CC(C)C[C@@H](/C=C/S(C)(=O)=O)NC(=O)[C@H](CC(C)C)NC(=O)[C@H](CC(C)C)NC(=O)OCc1ccccc1` [Z-LLL-VS, Z-Leu-Leu-Leu-vinylsulfone], the “ranking of protease inactivators by inhibition / EC100” value in test [4] is reported as “top inhibitors”.
With `NC(N)=NCCCC(NC(=O)C(Cc1ccccc1)NC(=O)OCc1ccccc1)C(=O)Nc1ccc2c(C(F)(F)F)cc(=O)oc2c1` (stereo not drawn) [Z-Phe-Arg-AFC] (Cbz-Phe-Arg-{AFC}; configuration not given here), the “cleavage as substrate (Vmax)” value in test [3] is listed as “highest Vmax”.
As to `NC(N)=NCCC[C@H](NC(=O)OCc1ccccc1)C(=O)N[C@@H](CCCN=C(N)N)C(=O)Nc1ccc2c(C(F)(F)F)cc(=O)oc2c1` [Z-RR-AFC] (Cbz-Arg-Arg-{AFC}), in test [2], the “V Value (vehicle inhibition quotient, V=P*M)” value is reported as 0.09.
In the case of `O=C(N[C@@H](CO)C(=O)N[C@@H](Cc1ccc(O)cc1)C(=O)Nc1ccc2c(C(F)(F)F)cc(=O)oc2c1)OCc1ccccc1` [Z-SY-AFC] (Cbz-Ser-Tyr-{AFC}), the “V Value (vehicle inhibition quotient, V=P*M)” value in test [1] worked out at 0.090; in test [2] it was 0.09.
